US4463003A, “Cephem compounds” (Fujisawa Pharmaceutical Co., Ltd., priority 1982, dated 1984)
≈ marks a conversion by molar mass, not a printed value.

Experiments:
[1] = tested on: Proteus vulgaris 2; assay: Minimal inhibitory concentrations, two-fold agar-plate dilution method; assay type: cell-based; conditions: HI-agar, 37° C., 20 hours
Protocol: (§1) (A) Minimal inhibitory concentrations In vitro antibacterial activity was determined by the two-fold agar-plate dilution method as described below. One loopful of an overnight culture of each test strain in Trypticase-soy broth (10^8 viable cells per ml) was streaked on heart infusion agar (HI-agar) containing graded concentrations of representative test compound, and the minimal inhibitory concentration (MIC) was expressed in terms of μg/ml after incubation at 37° C. for 20 hours.

[2] = tested on: Proteus mirabilis 18; assay: as above; assay type: cell-based; conditions: HI-agar, 37° C., 20 hours
Protocol: as §1

[3] = in vivo; conditions: rat, po, 100 mg/kg
Protocol: Rats anesthetized with pentobarbital were fixed in supine position, and a polyethylene cannula was inserted into the bile duct. Bile samples were collected at 0 to 3, 3 to 6, and 6 to 24 hours after oral administration of 100 mg/kg of the test antibiotic. The antibiotic levels in the bile samples were bioassayed with the standard solution prepared with M/15 phosphate buffer (pH 7.0) and the biliary recovery in 24 hours were calculated.

[4] = Urinary excretion after oral administration in rats; assay type: in vivo; conditions: rat, urine, 100 mg/kg, 0 to 24 hours, bioassay, read-out: Urinary recovery in 24 hours (%)
Protocol: Urine of rats was collected with a urine collector at 0 to 6, and 6 to 24 hours after oral administration of 100 mg/kg of the test antibiotic. The antibiotic levels in the urine samples were bioassayed with the standard solution prepared with M/15 phosphate buffer (pH 7.0) and the urinary recovery in 24 hours was calculated.

O=C(O)CO/N=C(\C(=O)NC1C(=O)N2C(C(=O)O)=C(CSc3ccc4nnnn4n3)CSC12)c1ncsn1 (stereo not drawn) [Compound .circle.A, 7-[2-Carboxymethoxyimino-2-(1,2,4-thiadiazol-3-yl)acetamido]-3-(tetrazolo[1,5-b]pyridazin-6-yl)thiomethyl-3-cephem-4-carboxylic acid (syn isomer)]
MIC [1]: 0.05 µg/mL (≈ 0.0864 µM)
MIC [2]: 0.05 µg/mL (≈ 0.0864 µM)
dose excreted at 24 h [3]: 12.6%
dose excreted at 24 h [4]: 10.6%
